This note sets out measurements from patent US20240269298A1, “PHOSPHONYL DERIVATIVE, AND COMPOSITION AND PHARMACEUTICAL APPLICATION THEREOF” (XIZANG HAISCO PHARMACEUTICAL CO., LTD., priority 2021, published 2024).

Assay [1] deals with NCI-H1975 (EGFR-L858R-T790M) cells. The experiment in a line: Inhibitory activity on proliferation of NCI-H1975 (EGFR-L858R-T790M) cells (CTG, 72 h). The format is cell-based. The note with it: Homo sapiens. In short, it runs like this: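 IC50 values come from S-shaped dose-survival fits of CTG signal expressed as % of vehicle. Compound exposure lasted 72 h at 37 °C with 0.1% DMSO; seeding was 3000 A431 cells/well in DMEM+10% FBS and 1000 NCI-H1975 cells/well in RPMI1640+10% FBS.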

Another assay concerns A431 (EGFR-WT) cells. Description: Inhibitory activity on proliferation of A431 (EGFR-WT) cells (CTG, 72 h). The settings on record: Homo sapiens, A-431. The format is cell-based. As for the experimental part:
NCI-H1975 (EGFR-L858R-T790M) and A431 (EGFR-WT) cells were purchased from ATCC and cultured in an incubator at 37° C. with 5% CO2, and the culture mediums were RPMI1640+10% FBS and DMEM+10% FBS, respectively. On the first day, NCI-H1975 (EGFR-L858R-T790M) and A431 (EGFR-WT) cells in the logarithmic phase were collected, and viable cells were counted using an automatic cell analyzer (countstar). The cell suspensions were adjusted with the culture mediums and plated on a 96-well cell culture plate at 1000 cells/well for NCI-H1975 (EGFR-L858R-T790M) cells and at 3000 cells/well for A431 cells. The next day, the culture mediums were aspirated, and 90 μL of fresh culture mediums and 10 μL of the compounds at different concentrations were added to each well, wherein the final concentration of DMSO in each well was 0.1%. The plate was cultured in the incubator at 37° C. with 5% CO2 for 72 hours. After 72 hours of drug treatment, 50 μL of CTG solution (promega, G7572), which was already pre-melted and equilibrated to room temperature, was added to each well, and the mixtures were uniformly mixed for 2 min using a microplate shaker. The plate was placed at room temperature for 10 min, and then […] signal values were measured using a microplate reader (PHERAstar FSX).
Surviving cells % was calculated based on Vsample/Vvehicle control×100%, wherein Vsample was the readout of the drug-treated group, and Vvehicle control was the average value of the vehicle control group. Using the origin 9.2 software and nonlinear regression model, S-shaped dose-survival curves were plotted, and IC50 values were calculated.

[2] abbreviates: read-out: IC50 (value in brackets).

Read-outs that look alike come from different tables or passages of the source. A value given as a limit tells only on which side of the number the result lay.

For `COc1cc(N2CCC(N3CCN(CC4CCN(c5ccc6c(c5)C(=O)N(C5CCC(=O)NC5=O)C6=O)C4)CC3)CC2)c(-c2cnn(C)c2)cc1Nc1ncc(Br)c(Nc2ccc3nccnc3c2P(C)(C)=O)n1` (centres unmarked) [Compound 30, 5-(3-((4-(1-(4-((5-bromo-4-((5-(dimethylphosphoryl)quinoxalin-6-yl)amino)pyrimidin-2-yl)amino)-5-methoxy-2-(1-methyl-1H-pyrazol-4-yl)phenyl)piperidin-4-yl)piperazin-1-yl)methyl)pyrrolidin-1l-yl)-2-(2,6-dioxopiperidin-3-yl)isoindoline-1,3-dione], the results for the IC50 (in assay [1] (read-out: IC50 (class symbol)); in assay [1] (setting [2]); in the assay with A431 (EGFR-WT) cells) were under 100 nM, 12 nM and at least 10000 nM, respectively.

With `COc1cc(N2CCN(C3CN(c4ccc5c(c4)C(=O)N(C4CCC(=O)NC4=O)C5=O)C3)CC2)c(-c2cnn(C)c2)cc1Nc1ncc(Cl)c(Nc2ccc(C3CC3)cc2P(C)(C)=O)n1` (centres unmarked) [Compound 148, 5-(3-(4-(4-((5-chloro-4-((4-cyclopropyl-2-(dimethylphosphoryl)phenyl)amino)pyrimidin-2-yl)amino)-5-methoxy-2-(1-methyl-1H-pyrazol-4-yl)phenyl)piperazin-1-yl)azetidin-1-yl)-2-(2,6-dioxopiperidin-3-yl)isoindoline-1,3-dione], the IC50 (usually the concentration that inhibits the measured activity by half) in assay [1] (read-out: IC50 (class symbol)) is under 100 nM; in assay [1] (setting [2]) it was 79 nM; in the assay with A431 (EGFR-WT) cells, at least 10000 nM.

In the case of `COc1cc(N2CCC3(CCC(N4CCN(c5ccc6c(c5)C(=O)N(C5CCC(=O)NC5=O)C6=O)CC4)CC3)CC2)c(-c2cnn(C)c2)cc1Nc1ncc(Br)c(Nc2ccc(-c3ccccc3)cc2P(C)(C)=O)n1` (centres unmarked) [Compound 82, 5-(4-(3-(4-((5-bromo-4-((3-(dimethylphosphoryl)-[1,1′-biphenyl]-4-yl)amino)pyrimidin-2-yl)amino)-5-methoxy-2-(1-methyl-1H-pyrazol-4-yl)phenyl)-3-azaspiro[5.5]undecan-9-yl)piperazin-1-yl)-2-(2,6-dioxopiperidin-3-yl)isoindoline-1,3-dione], the IC50 in assay [1] (read-out: IC50 (class symbol)) was under 100 nM; in assay [1] (setting [2]) it was 90 nM; in the assay on A431 (EGFR-WT) cells it was at least 10000 nM.

On to `COc1cc(N2CCN(C3CCN(CC4CCN(c5cc6c(cc5F)C(=O)N(C5CCC(=O)NC5=O)C6=O)CC4)CC3)CC2)c(-c2cnn(C)c2)cc1Nc1ncc(Br)c(Nc2ccc(-c3ccccc3)cc2P(C)(C)=O)n1` (centres unmarked) [Compound 46, 5-(4-((4-(4-(4-((5-bromo-4-((3-(dimethylphosphoryl)-[1,1′-biphenyl]-4-yl)amino)pyrimidin-2-yl)amino)-5-methoxy-2-(1-methyl-1H-pyrazol-4-yl)phenyl)piperazin-1-yl)piperidin-1-yl)methyl)piperidin-1-yl)-2-(2,6-dioxopiperidin-3-yl)-6-fluoroisoindoline-1,3-dione], for which the results for the IC50 (in assay [1] (read-out: IC50 (class symbol)); in assay [1] (setting [2]); in the assay on A431 (EGFR-WT) cells) were under 100 nM, 71 nM and at least 10000 nM, respectively.

Regarding `COc1cc(N2CCC(N3CCN(CC4CCN(c5ccc6c(c5)C(=O)N(C5CCC(=O)NC5=O)C6=O)CC4)CC3)CC2)c(-c2cnn(C)c2)cc1Nc1ncc(Cl)c(Nc2ccc3nccnc3c2P(C)(C)=O)n1` (centres unmarked) [Compound 4, 5-(4-((4-(1-(4-((5-chloro-4-((5-(dimethylphosphoryl)quinoxalin-6-yl)amino)pyrimidin-2-yl)amino)-5-methoxy-2-(1-methyl-1H-pyrazol-4-yl)phenyl)piperidin-4-yl)piperazin-1-yl)methyl)piperidin-1-yl)-2-(2,6-dioxopiperidin-3-yl)isoindoline-1,3-dione], the IC50 in assay [1] (read-out: IC50 (class symbol)) is under 100 nM; in assay [1] (setting [2]), 21 nM; with A431 (EGFR-WT) cells it was at least 10000 nM.

Regarding `COc1cc(N2CCC(N3CCC(CN4CCN(c5ccc6c(c5)C(=O)N(C5CCC(=O)NC5=O)C6=O)CC4)CC3)CC2)c(C2CC2)cc1Nc1ncc(Br)c(Nc2ccc3nccnc3c2P(C)(C)=O)n1` (centres unmarked) [Compound 24, 5-(4-((1′-(4-((5-bromo-4-((5-(dimethylphosphoryl)quinoxalin-6-yl)amino)pyrimidin-2-yl)amino)-2-cyclopropyl-5-methoxyphenyl)-[1,4′-bipiperidin]-4-yl)methyl)piperazin-1-yl)-2-(2,6-dioxopiperidin-3-yl)isoindoline-1,3-dione], the IC50 was 100 to 500 nM in assay [1] (read-out: IC50 (class symbol)), 163 nM in assay [1] (setting [2]) and at least 10000 nM in the assay with A431 (EGFR-WT) cells.

In the case of `COc1cc(N2CCC(CN3CCN(c4ccc5c(c4)C(=O)N([C@H]4CCC(=O)NC4=O)C5=O)CC3)CC2)c(-c2cnn(C)c2)cc1Nc1ncc(Cl)c(Nc2ccc(C3CC3)cc2P(C)(C)=O)n1` [Compound 172], the IC50 in assay [1] (read-out: IC50 (class symbol)) was under 100 nM; in assay [1] (setting [2]) it was 49 nM; with A431 (EGFR-WT) cells, at least 10000 nM.

Regarding `COc1cc(N2CCC(CN3CC4CN(c5ccc6c(c5)C(=O)N(C5CCC(=O)NC5=O)C6=O)CC4C3)CC2)c(C2CC2)cc1Nc1ncc(Br)c(Nc2ccc3nccnc3c2P(C)(C)=O)n1` (centres unmarked) [Compound 34, 5-(5-((1-(4-((5-bromo-4-((5-(dimethylphosphoryl)quinoxalin-6-yl)amino)pyrimidin-2-yl)amino)-2-cyclopropyl-5-methoxyphenyl)piperidin-4-yl)methyl)hexahydropyrrolo[3,4-c]pyrrol-2(1H)-yl)-2-(2,6-dioxopiperidin-3-yl)isoindoline-1,3-dione], the IC50 in the assay with A431 (EGFR-WT) cells is at least 10000 nM.

As for `COc1cc(N2CCN(C3CN(c4ccc5c(c4)C(=O)N(C4CCC(=O)NC4=O)C5=O)C3)CC2)c(-c2cnn(C)c2)cc1Nc1ncc(Br)c(Nc2ccc(C3CC3)cc2P(C)(C)=O)n1` (centres unmarked) [Compound 150, 5-(3-(4-(4-((5-bromo-4-((4-cyclopropyl-2-(dimethylphosphoryl)phenyl)amino)pyrimidin-2-yl)amino)-5-methoxy-2-(1-methyl-1H-pyrazol-4-yl)phenyl)piperazin-1-yl)azetidin-1-yl)-2-(2,6-dioxopiperidin-3-yl)isoindoline-1,3-dione], the IC50 in assay [1] (read-out: IC50 (class symbol)) is under 100 nM; in assay [1] (setting [2]), 40 nM; with A431 (EGFR-WT) cells, at least 10000 nM.

As for `COc1cc(N2CCC(C3CCN(CC4CCN(c5ccc6c(c5)C(=O)N(C5CCC(=O)NC5=O)C6=O)CC4)CC3)CC2)c(-c2cnn(C)c2)cc1Nc1ncc(Cl)c(Nc2ccc(-c3ccccc3)cc2P(C)(C)=O)n1` (centres unmarked) [Compound 41, 5-(4-((1′-(4-((5-chloro-4-((3-(dimethylphosphoryl)-[1,1′-biphenyl]-4-yl)amino)pyrimidin-2-yl)amino)-5-methoxy-2-(1-methyl-1H-pyrazol-4-yl)phenyl)-[4,4′-bipiperidin]-1-yl)methyl)piperidin-1-yl)-2-(2,6-dioxopiperidin-3-yl)isoindoline-1,3-dione], the results for the IC50 (in assay [1] (read-out: IC50 (class symbol)); in assay [1] (setting [2]); in the assay on A431 (EGFR-WT) cells) were 100 to 500 nM, 353 nM and at least 10000 nM, respectively.

`COc1cc(N2CCC3(CCN(c4ccc5c(c4)C(=O)N(C4CCC(=O)NC4=O)C5=O)CC3)CC2)c(-c2cnn(C)c2)cc1Nc1ncc(Br)c(Nc2ccc(C3CC3)cc2P(C)(C)=O)n1` (centres unmarked) [Compound 165, 5-(9-(4-((5-bromo-4-((4-cyclopropyl-2-(dimethylphosphoryl)phenyl)amino)pyrimidin-2-yl)amino)-5-methoxy-2-(1-methyl-1H-pyrazol-4-yl)phenyl)-3,9-diazaspiro[5.5]undecan-3-yl)-2-(2,6-dioxopiperidin-3-yl)isoindoline-1,3-dione] returned an IC50 with A431 (EGFR-WT) cells of at least 10000 nM.

Regarding `COc1cc(N2CCC(N3CCN(c4ccc(N5CCC(=O)NC5=O)cc4)CC3)CC2)c(-c2cnn(C)c2)cc1Nc1ncc(Cl)c(Nc2ccc(C3CC3)cc2P(C)(C)=O)n1` [Compound 133, 1-(4-(4-(1-(4-((5-chloro-4-((4-cyclopropyl-2-(dimethylphosphoryl)phenyl)amino)pyrimidin-2-yl)amino)-5-methoxy-2-(1-methyl-1H-pyrazol-4-yl)phenyl)piperidin-4-yl)piperazin-1-yl)phenyl)dihydropyrimidine-2,4(1H,3H)-dione], in the assay on A431 (EGFR-WT) cells, the IC50 is at least 10000 nM.

Take `COc1cc(N2CCN(c3ccc4c(c3)C(=O)N(C3CCC(=O)NC3=O)C4=O)CC2)c(-c2cnn(C)c2)cc1Nc1ncc(Cl)c(Nc2ccc(C3CC3)cc2P(C)(C)=O)n1` (centres unmarked) [Compound 167, 5-(4-(4-((5-chloro-4-((4-cyclopropyl-2-(dimethylphosphoryl)phenyl)amino)pyrimidin-2-yl)amino)-5-methoxy-2-(1-methyl-1H-pyrazol-4-yl)phenyl)piperazin-1-yl)-2-(2,6-dioxopiperidin-3-yl)isoindoline-1,3-dione]: in the assay on A431 (EGFR-WT) cells, the IC50 is at least 10000 nM.

As for `COc1cc(N2CCC(N3CCN(c4ccc(N5CCC(=O)NC5=O)cc4)CC3)CC2)c(-c2cnn(C)c2)cc1Nc1ncc(Cl)c(Nc2ccc(-c3ccccc3)cc2P(C)(C)=O)n1` [Compound 137, 1-(4-(4-(1-(4-((5-chloro-4-((3-(dimethylphosphoryl)-[1,1′-biphenyl]-4-yl)amino)pyrimidin-2-yl)amino)-5-methoxy-2-(1-methyl-1H-pyrazol-4-yl)phenyl)piperidin-4-yl)piperazin-1-yl)phenyl)dihydropyrimidine-2,4(1H,3H)-dione], in the assay on A431 (EGFR-WT) cells, the IC50 is at least 10000 nM.
